Patent publication US20110224208A1, “NOVEL INHIBITORS OF FLAVIVIRUS REPLICATION” (KATHOLIEKE UNIVERSITEIT LEUVEN, K.U. LEUVEN R&D, priority 2008, published 2011)
Values after ≈ are worked out from the molar mass of the structure shown.

How the values were obtained:
[1] = system: HCV replicon I389luc-ubi-neo/NS3-3'/5.1; assay: Anti-HCV replicon assay (luciferase activity) in Huh-5-2 cells; format: cell-based, Hepatitis C virus; conditions: concentration required to inhibit luciferase activity in the replicon system by 50%
Method in brief: (§1)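 Huh-5-2 cells carrying the luciferase HCV replicon, seeded 24 h, then exposed to serial compound dilutions without G418 for 72 h at 37° C, 5% CO2. Replication read as luciferase luminescence, expressed as percentage of untreated cultures; culture density measured in parallel by MTS.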

[2] = Proliferation of exponentially growing Huh-5-2 cells (MTS method); conditions: human, CC50, concentration required to inhibit the proliferation of exponentially growing Huh-5-2 cells by 50%
Method in brief: as §1

Huh-5-2 cells = assay: as above; conditions: concentration required to inhibit the proliferation of exponentially growing Huh-5-2 cells by 50%
Method in brief: as §1

[3] = system: HCV replicon (RNA) synthesis; assay: Quantitative analysis of HCV replicon RNA by Taqman real-time RT-PCR in Huh-5-2 cells; format: cell-based, Hepatitis C virus
Experimental: Replicon cells were plated at 7.5×10^3 cells per well in a 96-well plate plates at 37° C. and 5% CO2 in Dulbecco's modified essential medium containing 10% fetal calf serum, 1% nonessential amino acids and 1 mg/ml Geneticin. After allowing 24 h for cell attachment, different dilutions of compound were added to the cultures. Plates were incubated for 5 days, at which time RNA was extracted using the Qiamp Rneazyi Kit (Qiagen, Hilden, Germany). […] After initial activation of uracil-N-glycosylase at 50° C. for 2 minutes, RT was performed at 60° C. for 30 minutes, followed by inactivation of uracil-N-glycosylase at 95° C. for 5 minutes. Subsequent PCR amplification consisted of 40 cycles of denaturation at 94° C. for 20 seconds and annealing and extension at 62° C. for 1 minute in an ABI 7700 sequence detector. For each PCR run, negative template and positive template samples were used. The cycle threshold value (Ct-value) is defined as the number of PCR cycles for which the signal exceeds the baseline, which defines a positive value. The sample was considered to be positive if the Ct-value was <50. Results are expressed as genomic equivalents (GE).

[4] = Hepatitis C virus, Huh-5-2, concentration required to reduce the synthesis of HCV replicon by 50% as determined by real-time quantitative RT-PCR
[5] = Hepatitis C virus, Huh-5-2, 72 h

Row | Structure (SMILES) | IC50 [1, 5] [µg/mL] | CC50 (Huh-5-2 cells; Table 2) [µg/mL] | also measured
1 | COCCN1C(=O)c2ccccc2C(C(=O)Nc2cccc(OC)c2)C1c1cccs1 (racemic) [C1, 2-(2-methoxyethyl)-N-(3-methoxyphenyl)-1-oxo-3-(thiophen-2-yl)-1,2,3,4-tetrahydroisoquinoline-4-carboxamide] | – | – | IC50 ([1]; 72 hours, listed as C1 (cis)): 0.3 µg/mL (≈ 0.687 µM); CC50 at 72 h ([2]; Table 4): > 50 µg/mL; CC50 (Huh-5-2 cells; Table 2, listed as C1 (cis)): 83.7 µg/mL (≈ 192 µM); EC50 [3, 4]: 24 µg/mL (≈ 55 µM)
2 | COCCN1C(=O)c2ccccc2C(C(=O)Nc2cccc(OC)c2)C1c1cccs1 (racemic) [C2, 2-(2-methoxyethyl)-N-(3-methoxyphenyl)-1-oxo-3-(thiophen-2-yl)-1,2,3,4-tetrahydroisoquinoline-4-carboxamide] | – | – | IC50 ([1]; 72 hours, listed as C2 (trans)): 1.3 µg/mL (≈ 2.98 µM); CC50 (Huh-5-2 cells; Table 2, listed as C2 (trans)): 41.2 µg/mL (≈ 94.4 µM); CC50 (Huh-5-2 cells; Table 4): >50 µg/mL; EC50 ([3]; concentration required to reduce the synthesis of HCV replicon by 50% as determined by real-time quantitative RT-PCR): 17.000 µg/mL (≈ 38.9 µM)
3 | COCCN1C(=O)c2c(Cl)cccc2C(C(=O)Nc2cccc(OC)c2)C1c1cccs1 (stereo not drawn) [C24, 8-Chloro-2-(2-methoxyethyl)-N-(3-methoxyphenyl)-1-oxo-3-(thiophen-2-yl)-1,2,3,4-tetrahydroisoquinoline-4-carboxamide] | 35.7 (≈ 75.9 µM) | 125 (≈ 265 µM) | –
4 | COCCN1C(=O)c2ccccc2C(C(=O)Nc2cccc(OC)c2)C1Cc1ccccc1 (stereo not drawn) [C68, 3-Benzyl-2-(2-methoxyethyl)-N-(3-methoxyphenyl)-1-oxo-1,2,3,4-tetrahydroisoquinoline-4-carboxamide] | 70.6 (≈ 159 µM) | 125 (≈ 281 µM) | –
5 | COCCN1C(=O)c2ccccc2C(C(=O)Nc2cccc(OC)c2)C1C#C[Si](C)(C)C (stereo not drawn) [C70, 2-(2-methoxyethyl)-N-(3-methoxyphenyl)-1-oxo-3-((trimethylsilyl)ethynyl)-1,2,3,4-tetrahydroisoquinoline-4-carboxamide] | 3.33 (≈ 7.39 µM) | 125 (≈ 277 µM) | –
6 | COCCN1C(=O)c2ccccc2C(C(=O)Nc2cccc(OC)c2)C1CC(F)(F)F (stereo not drawn) [C71, 2-(2-methoxyethyl)-N-(3-methoxyphenyl)-1-oxo-3-(2,2,2-trifluoroethyl)-1,2,3,4-tetrahydroisoquinoline-4-carboxamide] | 12.6 (≈ 28.8 µM) | 125 (≈ 286 µM) | –
7 | COCCN1C(=O)c2ccccc2C(CNc2ccc(Cl)cc2)C1c1cccs1 (stereo not drawn) [C78, 4-((4-chlorophenylamino)methyl)-2-(2-methoxyethyl)-3-(thiophen-2-yl)-3,4-dihydroisoquinolin-1(2H)-one] | 50.5 (≈ 118 µM) | 125 (≈ 293 µM) | –
8 | COCCN1C(=O)c2ccccc2C(C(=O)NCc2ccc(OC)cc2)C1c1cccs1 (stereo not drawn) [C79, N-(4-methoxybenzyl)-2-(2-methoxyethyl)-1-oxo-3-(thiophen-2-yl)-1,2,3,4-tetrahydroisoquinoline-4-carboxamide] | 68.2 (≈ 151 µM) | 125 (≈ 277 µM) | –
9 | COCCN1C(=O)c2ccccc2C(C(=O)Nc2ccc(-c3ccccc3)nc2)C1c1cccs1 (stereo not drawn) [C186, 2-(2-methoxyethyl)-1-oxo-N-(6-phenylpyridin-3-yl)-3-(thiophen-2-yl)-1,2,3,4-tetrahydroisoquinoline-4-carboxamide] | 0.04 (≈ 0.0827 µM) | – | CC50 at 72 h ([2]; Table 2): 2.79 µg/mL (≈ 5.77 µM); CC50 at 72 h ([2]; Table 4): > 50 µg/mL; EC50 [3, 4]: 0.045 µg/mL (≈ 0.0931 µM)
